The target of test [1] is Homeodomain-interacting protein kinase 3 (Homo sapiens) (UniProt Q9H422). Description: Inhibition of HIPK3 (unknown origin) at 10 uM after 120 mins P33 radiolabeled kinase activity assay.
For the next test, the species on record is Homo sapiens. Description: Inhibition of PKCbeta2 (unknown origin) at 10 uM after 120 mins P33 radiolabeled kinase activity assay.
Test [2] addresses LIM domain kinase 1 (Homo sapiens) (UniProt P53667). Description: Inhibition of LIMK1 (unknown origin) at 10 uM after 120 mins P33 radiolabeled kinase activity assay.
Test [3] deals with Tyrosine-protein kinase Lyn (Homo sapiens) (UniProt P07948). Nature of the test: Inhibition of LYN (unknown origin) at 10 uM after 120 mins P33 radiolabeled kinase activity assay.
For test [4], the target named is Serine/threonine-protein kinase MRCK alpha (Homo sapiens) (UniProt Q5VT25). Nature of the test: Inhibition of MRCKalpha (unknown origin) at 10 uM after 120 mins P33 radiolabeled kinase activity assay.
The target in test [5] is T1, Serine/threonine-protein kinase 4 (Homo sapiens) (UniProt Q13043).
T1 sequence (whole entry): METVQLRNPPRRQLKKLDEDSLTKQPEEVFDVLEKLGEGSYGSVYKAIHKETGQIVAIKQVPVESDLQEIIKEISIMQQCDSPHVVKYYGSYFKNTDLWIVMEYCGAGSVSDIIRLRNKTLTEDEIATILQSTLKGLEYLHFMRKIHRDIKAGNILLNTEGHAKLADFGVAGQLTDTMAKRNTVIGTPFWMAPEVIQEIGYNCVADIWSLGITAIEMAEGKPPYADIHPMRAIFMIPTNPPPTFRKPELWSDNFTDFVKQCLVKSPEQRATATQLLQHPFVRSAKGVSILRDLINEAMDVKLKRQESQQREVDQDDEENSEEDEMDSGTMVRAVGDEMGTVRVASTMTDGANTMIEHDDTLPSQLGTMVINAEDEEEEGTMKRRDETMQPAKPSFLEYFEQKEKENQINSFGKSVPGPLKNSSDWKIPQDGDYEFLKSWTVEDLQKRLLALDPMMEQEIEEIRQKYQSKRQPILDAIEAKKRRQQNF
Nature of the test: Inhibition of MST1 (unknown origin) at 10 uM after 120 mins P33 radiolabeled kinase activity assay.

Test [6] deals with T2, Myosin-IIIb (Homo sapiens) (UniProt Q8WXR4).
T2 sequence (whole entry): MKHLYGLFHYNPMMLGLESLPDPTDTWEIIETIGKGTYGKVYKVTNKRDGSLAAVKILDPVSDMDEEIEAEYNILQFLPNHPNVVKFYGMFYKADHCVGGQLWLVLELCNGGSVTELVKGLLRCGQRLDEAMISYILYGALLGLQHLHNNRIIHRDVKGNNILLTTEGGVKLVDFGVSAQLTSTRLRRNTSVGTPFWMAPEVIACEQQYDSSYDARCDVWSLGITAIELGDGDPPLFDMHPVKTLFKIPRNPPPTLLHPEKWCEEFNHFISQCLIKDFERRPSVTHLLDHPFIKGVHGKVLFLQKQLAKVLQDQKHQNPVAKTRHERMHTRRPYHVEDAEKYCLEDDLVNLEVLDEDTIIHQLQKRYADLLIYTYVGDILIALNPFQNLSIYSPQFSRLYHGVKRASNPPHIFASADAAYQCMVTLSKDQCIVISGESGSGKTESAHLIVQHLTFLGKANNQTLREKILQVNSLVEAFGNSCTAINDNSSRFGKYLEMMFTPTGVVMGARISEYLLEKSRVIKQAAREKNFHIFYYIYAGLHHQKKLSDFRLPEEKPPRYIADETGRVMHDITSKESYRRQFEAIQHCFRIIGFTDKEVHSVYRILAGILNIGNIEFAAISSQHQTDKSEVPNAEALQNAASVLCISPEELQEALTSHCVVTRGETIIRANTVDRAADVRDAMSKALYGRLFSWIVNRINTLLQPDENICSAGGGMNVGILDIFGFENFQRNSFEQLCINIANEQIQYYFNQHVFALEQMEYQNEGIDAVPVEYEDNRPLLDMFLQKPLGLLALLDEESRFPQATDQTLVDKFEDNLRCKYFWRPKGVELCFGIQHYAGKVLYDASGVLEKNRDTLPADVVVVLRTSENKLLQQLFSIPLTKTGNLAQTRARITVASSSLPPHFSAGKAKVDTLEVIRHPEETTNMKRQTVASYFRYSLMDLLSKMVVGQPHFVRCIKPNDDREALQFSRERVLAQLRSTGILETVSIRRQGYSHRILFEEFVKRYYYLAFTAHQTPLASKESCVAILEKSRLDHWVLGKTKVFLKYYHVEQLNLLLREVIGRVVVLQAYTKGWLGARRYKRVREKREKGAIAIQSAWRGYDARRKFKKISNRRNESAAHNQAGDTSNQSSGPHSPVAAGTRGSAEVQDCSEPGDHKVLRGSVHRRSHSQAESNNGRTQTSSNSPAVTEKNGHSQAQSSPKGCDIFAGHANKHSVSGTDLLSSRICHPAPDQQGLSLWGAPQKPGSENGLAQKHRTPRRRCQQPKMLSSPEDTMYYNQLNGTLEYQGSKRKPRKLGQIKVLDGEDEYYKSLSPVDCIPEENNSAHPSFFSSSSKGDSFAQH
Description: Inhibition of MYO3b (unknown origin) at 10 uM after 120 mins P33 radiolabeled kinase activity assay.

In test [7] the target is T3, Testis-specific serine/threonine-protein kinase 1 (Homo sapiens) (UniProt Q9BXA7).
T3 sequence (whole entry): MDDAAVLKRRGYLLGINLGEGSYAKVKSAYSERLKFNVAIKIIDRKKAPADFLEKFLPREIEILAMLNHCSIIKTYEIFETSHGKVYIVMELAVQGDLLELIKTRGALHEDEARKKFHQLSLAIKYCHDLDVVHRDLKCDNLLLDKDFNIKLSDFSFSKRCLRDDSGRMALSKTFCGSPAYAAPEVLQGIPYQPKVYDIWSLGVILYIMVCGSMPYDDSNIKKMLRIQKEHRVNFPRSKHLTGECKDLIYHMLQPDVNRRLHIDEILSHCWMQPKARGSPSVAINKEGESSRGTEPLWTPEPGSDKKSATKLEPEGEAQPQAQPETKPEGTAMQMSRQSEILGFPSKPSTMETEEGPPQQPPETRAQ
Description: Inhibition of STK22D (unknown origin) at 10 uM after 120 mins P33 radiolabeled kinase activity assay.

In test [8] the target is Leukocyte tyrosine kinase receptor (Homo sapiens) (UniProt P29376). Description: Inhibition of TYK1 (unknown origin) at 10 uM after 120 mins P33 radiolabeled kinase activity assay.
Leukocyte tyrosine kinase receptor (Homo sapiens), sequence (P29376 whole entry): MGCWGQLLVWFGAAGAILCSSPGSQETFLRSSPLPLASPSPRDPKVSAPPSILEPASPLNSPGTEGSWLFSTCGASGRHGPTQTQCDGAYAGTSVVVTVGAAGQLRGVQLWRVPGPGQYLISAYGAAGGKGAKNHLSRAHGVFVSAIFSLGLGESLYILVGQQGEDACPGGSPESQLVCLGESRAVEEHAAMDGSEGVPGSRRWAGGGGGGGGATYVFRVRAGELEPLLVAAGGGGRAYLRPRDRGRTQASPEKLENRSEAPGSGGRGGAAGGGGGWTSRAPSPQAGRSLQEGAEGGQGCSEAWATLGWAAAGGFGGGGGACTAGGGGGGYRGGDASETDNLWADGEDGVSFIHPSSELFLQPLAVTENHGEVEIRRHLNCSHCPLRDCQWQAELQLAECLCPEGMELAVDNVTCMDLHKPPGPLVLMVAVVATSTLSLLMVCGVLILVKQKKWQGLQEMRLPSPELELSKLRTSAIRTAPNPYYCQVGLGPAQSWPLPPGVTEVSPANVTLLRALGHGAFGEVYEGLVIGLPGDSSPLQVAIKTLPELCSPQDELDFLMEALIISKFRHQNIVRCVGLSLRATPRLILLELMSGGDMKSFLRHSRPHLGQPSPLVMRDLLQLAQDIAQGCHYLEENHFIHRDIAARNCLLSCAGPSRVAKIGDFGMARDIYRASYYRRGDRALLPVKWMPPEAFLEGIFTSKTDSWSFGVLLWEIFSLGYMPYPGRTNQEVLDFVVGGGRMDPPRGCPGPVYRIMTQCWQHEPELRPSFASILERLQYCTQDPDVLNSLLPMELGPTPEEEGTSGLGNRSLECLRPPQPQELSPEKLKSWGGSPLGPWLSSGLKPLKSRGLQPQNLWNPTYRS
Test [9] deals with Non-receptor tyrosine-protein kinase TYK2 (Homo sapiens) (UniProt P29597). Nature of the test: Inhibition of TYK2 (unknown origin) at 10 uM after 120 mins P33 radiolabeled kinase activity assay.
Non-receptor tyrosine-protein kinase TYK2 (Homo sapiens), sequence (P29597 whole entry): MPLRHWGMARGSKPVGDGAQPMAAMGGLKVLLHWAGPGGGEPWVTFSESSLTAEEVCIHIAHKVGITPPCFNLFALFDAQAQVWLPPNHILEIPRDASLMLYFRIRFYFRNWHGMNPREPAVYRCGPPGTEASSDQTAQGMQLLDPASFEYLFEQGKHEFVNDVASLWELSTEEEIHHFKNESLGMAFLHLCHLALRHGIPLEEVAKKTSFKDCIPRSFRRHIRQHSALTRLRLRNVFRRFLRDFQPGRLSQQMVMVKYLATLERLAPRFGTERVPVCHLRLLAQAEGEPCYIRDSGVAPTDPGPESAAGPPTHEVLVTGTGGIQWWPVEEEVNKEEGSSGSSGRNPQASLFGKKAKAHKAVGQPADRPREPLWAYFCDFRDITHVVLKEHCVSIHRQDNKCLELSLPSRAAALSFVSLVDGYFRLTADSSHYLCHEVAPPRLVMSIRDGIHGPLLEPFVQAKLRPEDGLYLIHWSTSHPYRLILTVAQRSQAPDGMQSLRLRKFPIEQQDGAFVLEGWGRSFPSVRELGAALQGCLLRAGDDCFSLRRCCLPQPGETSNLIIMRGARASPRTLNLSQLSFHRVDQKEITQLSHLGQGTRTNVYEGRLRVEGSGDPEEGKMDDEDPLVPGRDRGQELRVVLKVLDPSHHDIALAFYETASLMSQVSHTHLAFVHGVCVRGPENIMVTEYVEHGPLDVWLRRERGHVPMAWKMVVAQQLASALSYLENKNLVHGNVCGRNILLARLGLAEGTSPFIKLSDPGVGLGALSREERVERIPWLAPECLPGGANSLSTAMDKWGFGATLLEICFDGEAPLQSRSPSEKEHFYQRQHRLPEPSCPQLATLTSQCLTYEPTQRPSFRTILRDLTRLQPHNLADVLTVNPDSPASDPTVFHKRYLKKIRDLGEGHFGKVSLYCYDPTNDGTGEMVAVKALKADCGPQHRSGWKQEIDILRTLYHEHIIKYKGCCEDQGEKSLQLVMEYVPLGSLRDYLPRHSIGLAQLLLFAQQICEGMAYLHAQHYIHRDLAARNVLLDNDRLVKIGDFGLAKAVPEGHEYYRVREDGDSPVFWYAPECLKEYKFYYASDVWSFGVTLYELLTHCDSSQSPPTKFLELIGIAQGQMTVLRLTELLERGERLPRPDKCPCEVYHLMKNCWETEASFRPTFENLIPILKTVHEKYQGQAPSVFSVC
In test [10] the target is Cell division cycle 7-related protein kinase (Homo sapiens) (UniProt O00311). Nature of the test: Inhibition of CDC7 (unknown origin) at 10 uM after 120 mins P33 radiolabeled kinase activity assay.
Cell division cycle 7-related protein kinase (Homo sapiens), sequence (O00311 whole entry, looked up): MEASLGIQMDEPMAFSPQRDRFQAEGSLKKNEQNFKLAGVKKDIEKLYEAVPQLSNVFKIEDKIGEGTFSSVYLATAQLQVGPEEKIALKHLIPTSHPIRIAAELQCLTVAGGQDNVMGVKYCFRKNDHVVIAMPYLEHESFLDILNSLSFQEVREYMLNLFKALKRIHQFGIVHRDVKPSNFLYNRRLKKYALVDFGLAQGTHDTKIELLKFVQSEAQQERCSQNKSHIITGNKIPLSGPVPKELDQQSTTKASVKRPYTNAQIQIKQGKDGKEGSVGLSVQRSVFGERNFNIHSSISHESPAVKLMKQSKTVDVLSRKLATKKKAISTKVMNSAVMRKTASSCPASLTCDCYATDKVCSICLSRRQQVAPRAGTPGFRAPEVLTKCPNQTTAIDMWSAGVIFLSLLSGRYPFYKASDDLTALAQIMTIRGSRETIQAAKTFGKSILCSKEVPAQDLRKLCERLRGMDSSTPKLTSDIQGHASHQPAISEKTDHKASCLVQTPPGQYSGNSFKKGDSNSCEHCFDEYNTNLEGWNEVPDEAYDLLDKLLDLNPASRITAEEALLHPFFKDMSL
Test [11] has as its target Dual specificity protein kinase CLK2 (Homo sapiens) (UniProt P49760). Nature of the test: Inhibition of CLK2 (unknown origin) at 10 uM after 120 mins P33 radiolabeled kinase activity assay.

The term inhibition denotes the relative decrease from the control value, in per cent. Higher therefore signals a response far below the control.

Dual specificity protein kinase CLK2 (Homo sapiens), sequence (P49760 whole entry, looked up): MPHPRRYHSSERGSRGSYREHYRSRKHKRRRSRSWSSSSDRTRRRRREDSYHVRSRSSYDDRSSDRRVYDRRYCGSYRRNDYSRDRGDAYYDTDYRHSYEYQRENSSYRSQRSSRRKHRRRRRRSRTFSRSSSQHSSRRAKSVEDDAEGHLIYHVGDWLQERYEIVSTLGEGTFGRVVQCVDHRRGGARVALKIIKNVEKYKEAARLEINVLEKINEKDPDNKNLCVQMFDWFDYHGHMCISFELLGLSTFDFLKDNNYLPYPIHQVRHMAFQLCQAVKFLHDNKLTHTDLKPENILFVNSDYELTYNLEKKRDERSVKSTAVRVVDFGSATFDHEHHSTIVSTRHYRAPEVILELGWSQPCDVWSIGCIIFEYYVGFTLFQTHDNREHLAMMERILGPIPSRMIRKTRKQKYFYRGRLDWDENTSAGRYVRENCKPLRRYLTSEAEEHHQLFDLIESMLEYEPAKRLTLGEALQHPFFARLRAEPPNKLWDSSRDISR
Homeodomain-interacting protein kinase 3 (Homo sapiens), sequence (Q9H422 whole entry, looked up): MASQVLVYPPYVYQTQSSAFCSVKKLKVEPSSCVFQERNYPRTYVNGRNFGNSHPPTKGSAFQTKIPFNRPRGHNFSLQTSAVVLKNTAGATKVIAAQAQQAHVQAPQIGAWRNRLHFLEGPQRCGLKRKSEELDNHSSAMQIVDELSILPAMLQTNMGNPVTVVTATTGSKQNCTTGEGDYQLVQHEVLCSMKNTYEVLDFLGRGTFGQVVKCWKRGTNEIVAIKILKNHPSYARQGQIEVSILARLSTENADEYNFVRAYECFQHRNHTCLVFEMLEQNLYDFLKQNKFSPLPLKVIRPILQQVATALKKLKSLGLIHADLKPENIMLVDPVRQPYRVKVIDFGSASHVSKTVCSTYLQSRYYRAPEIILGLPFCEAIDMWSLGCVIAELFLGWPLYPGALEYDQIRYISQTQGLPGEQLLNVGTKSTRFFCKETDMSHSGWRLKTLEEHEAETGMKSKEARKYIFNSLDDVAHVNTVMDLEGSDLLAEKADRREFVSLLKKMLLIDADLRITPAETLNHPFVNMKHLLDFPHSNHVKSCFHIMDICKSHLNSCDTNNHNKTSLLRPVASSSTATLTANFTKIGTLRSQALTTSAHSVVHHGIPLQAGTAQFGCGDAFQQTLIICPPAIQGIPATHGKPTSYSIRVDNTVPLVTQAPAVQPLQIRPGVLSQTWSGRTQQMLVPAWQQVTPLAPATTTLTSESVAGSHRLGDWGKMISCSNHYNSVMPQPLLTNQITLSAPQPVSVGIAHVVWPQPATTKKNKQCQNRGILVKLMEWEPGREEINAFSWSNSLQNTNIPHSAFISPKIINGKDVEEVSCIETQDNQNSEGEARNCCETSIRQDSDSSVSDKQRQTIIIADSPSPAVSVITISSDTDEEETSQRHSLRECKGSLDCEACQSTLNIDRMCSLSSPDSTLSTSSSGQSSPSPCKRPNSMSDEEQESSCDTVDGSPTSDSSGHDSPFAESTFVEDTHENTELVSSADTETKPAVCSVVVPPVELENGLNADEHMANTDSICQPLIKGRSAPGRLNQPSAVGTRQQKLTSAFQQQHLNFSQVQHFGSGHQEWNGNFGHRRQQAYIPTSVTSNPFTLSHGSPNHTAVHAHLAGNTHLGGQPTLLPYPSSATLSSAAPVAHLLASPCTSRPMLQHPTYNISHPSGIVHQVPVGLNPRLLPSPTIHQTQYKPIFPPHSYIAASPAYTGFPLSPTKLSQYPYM
LIM domain kinase 1 (Homo sapiens), sequence (P53667 whole entry, looked up, the tested form may be a part): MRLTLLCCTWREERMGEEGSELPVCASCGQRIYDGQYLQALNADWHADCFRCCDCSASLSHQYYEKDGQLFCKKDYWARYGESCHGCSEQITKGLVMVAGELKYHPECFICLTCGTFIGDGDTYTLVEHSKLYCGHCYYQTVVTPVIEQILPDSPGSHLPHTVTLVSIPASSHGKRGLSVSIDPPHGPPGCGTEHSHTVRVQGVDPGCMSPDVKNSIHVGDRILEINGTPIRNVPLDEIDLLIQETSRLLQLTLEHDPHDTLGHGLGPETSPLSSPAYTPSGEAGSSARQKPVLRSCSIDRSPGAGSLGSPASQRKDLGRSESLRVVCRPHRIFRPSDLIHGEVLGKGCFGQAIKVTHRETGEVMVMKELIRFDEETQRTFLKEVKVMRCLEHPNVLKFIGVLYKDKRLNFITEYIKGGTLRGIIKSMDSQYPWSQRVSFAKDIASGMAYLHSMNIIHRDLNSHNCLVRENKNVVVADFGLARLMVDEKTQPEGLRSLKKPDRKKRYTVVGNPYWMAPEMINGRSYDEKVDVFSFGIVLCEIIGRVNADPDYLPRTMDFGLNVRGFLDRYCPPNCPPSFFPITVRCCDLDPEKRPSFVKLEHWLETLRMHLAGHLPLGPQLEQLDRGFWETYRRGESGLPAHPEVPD

For the compound `CS(=O)(=O)c1cccc(Nc2nccc(-c3sc(N4CCOCC4)nc3-c3cccc(NS(=O)(=O)c4c(F)cccc4F)c3)n2)c1`, the inhibition stood at 89.4% in test [1]; 9.1% in the test filed under Homo sapiens; 99.2% in [2]; 100% in test [3]; 13% in test [4]; 16% in [5]. Also, the inhibition in test [6] was determined as 71.7%; in test [7] it was 13.6%; in test [8], 7.78%; in test [9], 54.8%; in test [10], 9.73%; in test [11], 24.5%.
On to `CC(C)(C)c1cc(NC(=O)Nc2ccc(Oc3ccncc3)cc2)no1`, for which the inhibition was 45.5% in [1]; 9.88% in the test listed under Homo sapiens; 75.6% in [2]; 98.2% in [3]; 30.5% in test [4]; 11.5% in test [5]. For the same compound, the inhibition in test [6] is 92.5%; in test [7] it was 7.33%; in test [8] it was 35.5%; in test [9], 9.99%; in test [10], 5.38%; in test [11], 28.8%.
Take `COCCNC(=O)c1ccc2c(c1)nc(-c1cnc(-c3ccc(Cl)cc3)[nH]1)n2CCOC`: the inhibition in [1] worked out at 3.91%; in the test listed under Homo sapiens, 31.5%; in test [2], 8.6%; in [3], 61.6%; in test [4], 8.76%; in [5] it was 9.73%. The inhibition in [6] was determined as 2.38%; in test [7], 7.17%; in [8] it was 4.59%; in [9], 13.2%; in [10] it was 6.05%; in test [11], 7.06%.
